These results are taken from ChEMBL document CHEMBL1152268, “Discovery and SAR of novel 4-thiazolyl-2-phenylaminopyrimidines as potent inhibitors of spleen tyrosine kinase (SYK)” (Bioorg Med Chem Lett, 2008).

The target in data set [1] is Cyclin-dependent kinase 2 (Homo sapiens, UniProt P24941). Put plainly: Inhibition of CDK2.
Data set [2] is described as follows: (§1) Metabolic stability in rat liver microsomes after 30 mins. It counts as ADME, Microsome. The settings on record: liver microsomes, read-out: Stability. (In general: Liver microsomes are vesicles of endoplasmic reticulum, rich in cytochrome P450 enzymes.)
The target of data set [3] is Tyrosine-protein kinase SYK (Homo sapiens, UniProt P43405).
In data set [4] the target is T1, Tyrosine-protein kinase ZAP-70 (Homo sapiens, UniProt P43403).
T1 sequence (P43403 whole entry): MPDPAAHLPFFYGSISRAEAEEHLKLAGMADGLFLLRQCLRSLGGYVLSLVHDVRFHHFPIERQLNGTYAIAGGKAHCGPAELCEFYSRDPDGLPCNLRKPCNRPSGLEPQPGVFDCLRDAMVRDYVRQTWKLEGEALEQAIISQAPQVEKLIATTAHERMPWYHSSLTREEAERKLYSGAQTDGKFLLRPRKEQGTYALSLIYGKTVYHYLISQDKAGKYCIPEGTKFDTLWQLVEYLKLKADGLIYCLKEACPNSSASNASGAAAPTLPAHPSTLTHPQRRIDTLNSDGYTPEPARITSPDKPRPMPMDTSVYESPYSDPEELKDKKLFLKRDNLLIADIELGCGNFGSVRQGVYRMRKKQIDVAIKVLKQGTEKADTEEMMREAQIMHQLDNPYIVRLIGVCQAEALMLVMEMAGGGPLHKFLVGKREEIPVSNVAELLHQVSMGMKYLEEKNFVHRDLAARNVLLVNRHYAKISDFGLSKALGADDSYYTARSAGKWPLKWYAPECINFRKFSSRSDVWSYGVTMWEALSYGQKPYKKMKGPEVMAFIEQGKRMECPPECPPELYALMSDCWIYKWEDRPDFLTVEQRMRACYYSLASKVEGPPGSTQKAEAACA
Nature of the data set: (§2) Inhibition of ZAP70.

In data set [5] the target is Proto-oncogene tyrosine-protein kinase Src (Homo sapiens, UniProt P12931). Put plainly: Inhibition of SRC.
Data set [6] deals with Liver microsomes. Described as §1. It counts as ADME, Microsome. The following applies: microsomes, 0.5 h.
Data set [7] concerns the target T2, Tyrosine-protein kinase ZAP-70 (Homo sapiens) (UniProt P43403).
T2 sequence (whole entry): T1 sequence (P43403 whole entry)
Described as §2.

Each structure is given as a SMILES string. Active and inactive are the calls of the source. The rule behind the calls is not given here.

Chain of Proto-oncogene tyrosine-protein kinase Src (P12931 2-536 limits assumed): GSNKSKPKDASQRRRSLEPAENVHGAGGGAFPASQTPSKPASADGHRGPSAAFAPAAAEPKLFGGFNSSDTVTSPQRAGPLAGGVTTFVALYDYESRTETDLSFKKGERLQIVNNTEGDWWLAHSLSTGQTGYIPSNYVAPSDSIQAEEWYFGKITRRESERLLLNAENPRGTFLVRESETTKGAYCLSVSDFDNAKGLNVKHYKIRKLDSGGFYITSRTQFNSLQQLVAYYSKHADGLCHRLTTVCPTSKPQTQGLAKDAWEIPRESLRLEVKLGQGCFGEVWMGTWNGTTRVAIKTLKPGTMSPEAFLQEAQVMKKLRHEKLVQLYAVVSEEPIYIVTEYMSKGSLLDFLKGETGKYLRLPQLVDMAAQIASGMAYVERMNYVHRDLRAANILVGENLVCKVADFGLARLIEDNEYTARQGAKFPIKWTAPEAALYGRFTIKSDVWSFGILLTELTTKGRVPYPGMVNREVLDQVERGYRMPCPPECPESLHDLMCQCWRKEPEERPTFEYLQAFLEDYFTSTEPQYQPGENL

Take `Oc1cc(Nc2nccc(-c3nccs3)n2)cc(C(F)(F)F)c1`: the inhibition constant (Ki) (usually a dissociation constant, usually derived from enzyme kinetics or from competition with a known ligand) in data set [1] was 1650 nM; in data set [3] it was 44 nM; in data set [4] it was 754 nM; in data set [5] it was 991 nM. The remaining at 0.5 h in data set [2] is 24%.
The like results for `Cc1cc(C)cc(Nc2nccc(-c3nc(CO)cs3)n2)c1` were, in that order, 2400 nM, 10 nM, 450 nM, 2230 nM and 35%.
For the compound `Cc1cccc(Nc2nccc(-c3nccs3)n2)c1`, the inhibitory constant (Ki) in data set [1] worked out at 2450 nM; in data set [3], 82 nM; in data set [4], 1550 nM; in data set [5] it was 2980 nM. Besides, the Activity result in data set [6] is reported as “Not Active”.
Consider `OCc1csc(-c2ccnc(Nc3cc(O)cc(C(F)(F)F)c3)n2)n1`, for which the Ki in data set [1] worked out at 1500 nM; in data set [3], 50 nM; in data set [4], 680 nM; in data set [5], 4000 nM. For the same compound, in data set [2], the remaining at 0.5 h amounted to 50%.
For `COc1cc(Nc2nccc(-c3nc(CO)cs3)n2)cc(C(F)(F)F)c1`, the Ki in data set [1] is above 2500 nM; in data set [3], 33 nM; in data set [4], 1000 nM; in data set [5], 3500 nM. In addition, the Activity entry in data set [6] was “Not Active”.
As to `Cc1cc(C)cc(Nc2nccc(-c3nccs3)n2)c1`, the Ki in data set [1] is above 5000 nM; in data set [3], 8 nM; in data set [4], 419 nM; in data set [5] it was 1060 nM. Also, the remaining at 0.5 h in data set [2] worked out at 24%.
Turning to `Cc1cc(Nc2nccc(-c3nccs3)n2)cc(C(F)(F)F)c1`, the Ki in data set [1] was above 5000 nM; in data set [3], 110 nM; in data set [4], 891 nM; in data set [5] it was 1360 nM. For the same compound, the Activity result in data set [6] is “Not Active”.
With `Cc1cc(C)cc(Nc2nccc(-c3ncc(C)s3)n2)c1`, the inhibitory constant (Ki) in data set [1] was 1100 nM; in data set [3] it was 23 nM; in data set [4], 410 nM; in data set [5] it was 348 nM. The Activity in data set [6] came to 15%.
As to `Cc1ccc(C)c(Nc2nccc(-c3nccs3)n2)c1`, the outcome was inactive. The inhibition constant (Ki) in data set [1] is above 5000 nM. The Activity entry in data set [6] is on record as “Not Active”. In data set [3], this compound had a Ki of 1820 nM. In addition, in data set [7], the outcome was inactive. The compound further returned a Ki in data set [5] of 153 nM.
As for `COc1cc(Nc2nccc(-c3nccs3)n2)cc(OC)c1`, the Ki in data set [1] is above 5000 nM; in data set [3], 14 nM; in data set [4], 318 nM; in data set [5], 862 nM. In addition, in data set [2], the remaining at 0.5 h was 12%.
On to `Cc1cc(C)cc(Nc2nccc(-c3nc(C)cs3)n2)c1`, for which the Ki in data set [1] came out at 100 nM; in data set [3], 56 nM; in data set [4], 1030 nM; in data set [5], 2030 nM. Moreover, in data set [6], the Activity was determined as 5%.
In the case of `OCCCOc1cc(Nc2nccc(-c3nccs3)n2)cc(C(F)(F)F)c1`, the Ki in data set [1] is above 5000 nM; in data set [3], 26 nM; in data set [4], 677 nM; in data set [5], 422 nM. The remaining at 0.5 h in data set [2] amounted to 68%.
The compound `c1ccc(Oc2cccc(Nc3nccc(-c4nccs4)n3)c2)cc1` showed a Ki in data set [3] of 630 nM.
For `Cc1cc(Nc2nccc(-c3nc(C)c(CCO)s3)n2)cc(C(F)(F)F)c1`, the Ki in data set [1] is above 2500 nM; in data set [3], 22 nM; in data set [4], 3500 nM; in data set [5], 3500 nM. For the same compound, the remaining at 0.5 h in data set [2] was found to be 80%.
Turning to `Cc1cc(C)cc(Nc2nccc(-c3ncc(CO)s3)n2)c1`, the Ki in data set [1] was above 2500 nM; in data set [3] it was 4 nM; in data set [4] it was 270 nM; in data set [5] it was 2000 nM. In data set [2], the remaining at 0.5 h worked out at 37%.
In the case of `NCCCNc1nc(-c2ccc(N3CCOCC3)cc2)cc2ccccc12`, the half-maximal inhibitory concentration (IC50) (commonly the concentration needed to halve the response being measured) in data set [3] came out at 8 nM.
Consider `Cc1cc(C)cc(Nc2nccc(-c3nc(C)c(C(=O)N[C@@H](C)CO)s3)n2)c1`, for which the Ki in data set [1] was above 3330 nM; in data set [4] it was 240 nM; in data set [5], above 3330 nM.
`Cc1cc(Nc2nccc(-c3nc(CO)cs3)n2)cc(C(F)(F)F)c1`: the Ki stood at 1500 nM in data set [1], 10 nM in data set [3], 750 nM in data set [4] and 1800 nM in data set [5]. The remaining at 0.5 h in data set [2] is 64%.
On to `COc1cc(Nc2nccc(-c3ncc(C)s3)n2)cc(C(F)(F)F)c1`, for which the Ki in data set [1] is above 2500 nM; in data set [3] it was 23 nM; in data set [4] it was 1140 nM; in data set [5], 3700 nM. Further, the Activity entry in data set [6] is “Not Active”.
Regarding `Cc1cc(C)cc(Nc2nccc(-c3nc(C)c(CCO)s3)n2)c1`, the Ki in data set [1] was determined as 2270 nM; in data set [3], 32 nM; in data set [4] it was 560 nM; in data set [5], 3500 nM. In data set [2], the remaining at 0.5 h is 65%.
The like results for `COc1cc(Nc2nccc(-c3nccs3)n2)cc(C(F)(F)F)c1` were, in that order, above 5000 nM, 28 nM, 2150 nM, 1830 nM and 54%.
As for `Cc1cc(C)cc(Nc2nccc(-c3nc(C)c(C(=O)N[C@H](C)CO)s3)n2)c1`, the Ki in data set [1] was above 3330 nM; in data set [3], 210 nM; in data set [4], 1500 nM; in data set [5], above 3330 nM.
